Experimental data from patent publication US5446065A, “Sulfonamides of phenylalkylamines or phenoxyalkylamines processes for their preparation and medicaments containing these compounds” (Boehringer Mannheim GmbH, priority 1990, dated 1995).

How the values were obtained:
[1] = test system: U 46619-caused lung embolism; assay: Prevention of the U 46619-caused lung embolism (survival); format: in vivo, male NMRI mice; conditions: po, mouse, stomach probe, U 46619 injected 4 h later (800-1000 μg/kg, tail vein), read-out: survival rate of mouse 1 mg/kg after 4 h
Method: 2. Prevention of the U 46619-caused lung embolism
Male NMRI mice of about 25 g body weight are used. The test substance is suspended in 1% methyl cellulose solution and administered to the experimental animals by means of a stomach probe. The provocation test consists in that a dose lethal for the control animals (800-1000 μg/kg) of the thromboxane mimetic (U 46619 of the firm Upjohn) is rapidly injected into the tail vein. The period of the specific antagonistic action is tested in that the animals are pre-treated with 1 mg/kg of the various test substances and the injection of U 46619 takes place after 4 h. The survival rate indicates what percent of the animals used survive the injection of the thromboxane mimetic.

[2] = test system: U46619-induced bronchospasm of the guinea pig; assay: Inhibition of the U 46619-induced bronchospasm of the anaesthetised guinea pig; format: in vivo; conditions: Cavia porcellus, iv, 10 min, test substance i.v., 10 μg/kg U 46619 i.v., AUC over 10 min, read-out: ID50 of U46619-induced bronchospasm of the guinea pig
Method: 3. Inhibition of the U 46619-induced bronchospasm of the anaesthetised guinea pig
Guinea pigs are anaesthetised with narcoren and provided with a jugular vein catheter and a tracheal canula. The animals are mechanically respirated with atmospheric air with 1 ml/100 g body weight. The tracheal canula is connected via a three-way stopcock with a Stathem pressure element which takes up the pressure resulting by the contraction of the smooth musculature in the trachea and passes on to a recorder via a measuring bridge. After achievement of a constant basal tonus, the animals receive 10 μg/kg U 46619 i.v. administered via the jugular vein catheter. The dose induces a rapidly increasing bronchospasm which, after about 10 minutes, again subsides and is very readily reproducable. After 15 minutes follows a second administration of 10 μg/kg U 46619, in the course of which, after 5 minutes, the test substance is given i.v. in various doses. After a further 15 minutes, the same dose of U 46619 is again injected. The areas under the curve over 10 min of the administration 1 and 3 are determined planimetrically on a Kontron-Videoplan unit and the bronchospasm after administration 3 calculated in percentage of the bronchospasm after administration 1. The ID50 of the test substance can be determined from the quotients.

[3] = test system: pre-contracted isolated rat aortas; assay: TX-antagonistic action: inhibition of contraction of the isolated rat aorta ring pre-contracted with U 46619; format: cell-based; conditions: aorta rings precontracted with 0.3 μmol/l U 46619, cumulative addition, 37° C.
Method: 1. TX-antagonistic action on the isolated rat sorts ring pre-contracted with U 46619
The isolated rat sorts freed from surrounding connective tissue is cut up into equally wide rings and superinfused in a 10 ml organ bath with Krebs-Hanseleit buffer at 37° C. After about 45 min., equilibration time, the sorts rings are precontracted with 0.3 μmol/l U 46619, a stable analogue of the prostaglandin endoperoxide PGH2 (Upjohn & Co., Kalamazoo, USA). U 46619 was characterised as selective thromboxane mimetic (Coleman et al., Brit. J. Pharmacol. 68, 127P, 1980). As soon as a stable plateau is reached (after about 15 min.), the test substance is added cumulatively directly into the organ bath to the aorta ring, beginning with 10 nmol/l, until either an end concentration of 100 μmol/l is reached or the contraction is completely antagonised. There is calculated the particular percentage inhibition of the contraction by the test substance. From the concentration-action curves is determined the IC50, i.e. the half maximum inhibiting concentration.

SMILES | responders at 1 mg/kg [1] [%] | ED50 [2] [mg/kg] | IC50 [3] [nM]
O=C(COc1cccc(CCNS(=O)(=O)c2ccc(Cl)cc2)c1)N1CCCCC1 [Ex. 1 d, 3-[2-(4-chlorophenylsulphonylamino)-ethyl]-phenoxyacetylpiperidide] | 100 | 0.5 | 3400
NCCOc1cccc(CCNS(=O)(=O)c2ccc(Cl)cc2)c1 [Ex. 4, 1-[3-[2-(4-Chlorophenylsulphonylamino)-ethyl]-phenoxy]-2-aminoethane] | 100 | 0.01 | 340
CCNC(=O)COc1cccc(CCNS(=O)(=O)c2ccc(Cl)cc2)c1 [Ex. 2 a, 3-[2-(4-chlorophenylsulphonylamino)-ethyl]-phenoxyacetic acid ethylamide] | 100 | 0.01 | 1800
NCCCc1ccc(CCNS(=O)(=O)c2ccc(Cl)cc2)cc1 [Ex. 4 m, 1-[4-[2-(4-chlorophenylsulphonylamino)-ethyl]-phenyl]-3-aminopropane] | 100 | 0.05 | 3000
O=C(COc1ccc(CCNS(=O)(=O)c2ccc(Cl)cc2)cc1)Nc1cccnc1 [Ex. 1 r, 4-[2-(4-chlorophenylsulphonylamino)-ethyl]-phenoxyacetic acid (3-pyridyl)-amide] | 90 | 0.02 | 1000
O=C(COc1cccc(CCNS(=O)(=O)c2ccc(Cl)cc2)c1)N(CCO)CCO [Ex. 1 g, 3-[2-(4-chlorophenylsulphonylamino)-ethyl]-phenoxyacetic acid 2-[bis-(2-hydroxyethyl)-amide]] | 100 | 0.04 | 1600
NCCc1ccc(CCNS(=O)(=O)c2ccc(Cl)cc2)cc1 [Ex. 5, 1-[4-[2-(4-Chlorophenylsulphonylamino)-ethyl]-phenyl]-2-aminoethane] | 100 | 0.05 | 100
NCCCCc1ccc(CCNS(=O)(=O)c2ccc(Cl)cc2)cc1 [Ex. 4 s, 1-[4-[2-(4-chlorophenylsulphonylamino)-ethyl]-phenyl]-4-aminobutane] | 90 | 0.1 | 2600
O=C(COc1cccc(CCNS(=O)(=O)c2ccc(Cl)cc2)c1)NCCO [Ex. 1 f, 3-[2-(4-chlorophenylsulphonylamino)-ethyl]-phenoxyacetic acid (2-hydroxyethylamide)] | 100 | 0.02 | 1600
